Test results reported in patent publication US20250230165A1, “HETEROCYCLIC COMPOUNDS FOR USE IN THE TREATMENT OF CANCER” (ARTIOS PHARMA LIMITED, priority 2021, published 2025).

Biological target: T1, Human Polθ polymerase domain (aa1820-2590) (Homo sapiens, UniProt O75417)
T1 construct: Human Polθ polymerase domain (aa1820-2590) was expressed in E. coli; made in house; host or cells: E. coli
T1 sequence (O75417 1820-2590): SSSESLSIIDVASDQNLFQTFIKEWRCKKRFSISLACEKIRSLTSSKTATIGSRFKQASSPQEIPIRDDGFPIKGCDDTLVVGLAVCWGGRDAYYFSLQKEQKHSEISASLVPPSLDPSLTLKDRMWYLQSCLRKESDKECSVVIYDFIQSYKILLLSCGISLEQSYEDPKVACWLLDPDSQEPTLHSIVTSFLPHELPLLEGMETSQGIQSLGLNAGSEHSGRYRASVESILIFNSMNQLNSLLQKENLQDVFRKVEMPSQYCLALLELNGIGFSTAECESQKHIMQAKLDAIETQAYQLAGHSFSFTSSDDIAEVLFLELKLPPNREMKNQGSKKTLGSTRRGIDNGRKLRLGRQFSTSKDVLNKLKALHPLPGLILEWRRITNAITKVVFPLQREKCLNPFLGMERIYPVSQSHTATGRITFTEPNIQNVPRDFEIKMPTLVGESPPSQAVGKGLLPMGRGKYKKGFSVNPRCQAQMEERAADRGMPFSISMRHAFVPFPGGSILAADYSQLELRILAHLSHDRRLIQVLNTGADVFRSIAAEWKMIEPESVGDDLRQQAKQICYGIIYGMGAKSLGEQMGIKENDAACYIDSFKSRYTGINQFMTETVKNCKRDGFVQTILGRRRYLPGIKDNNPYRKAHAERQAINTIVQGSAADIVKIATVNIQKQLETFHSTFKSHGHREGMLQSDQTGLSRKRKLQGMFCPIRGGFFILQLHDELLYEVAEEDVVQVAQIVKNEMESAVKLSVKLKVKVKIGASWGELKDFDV
Test: Polθ Polymerase Domain Kinact/KI Assay (PicoGreen)
Assay type: biochemical
Settings: 0.8 nM Polθ, 100 nM DNA substrate, kobs vs [I] fit for 2-step covalent inhibitor
How it was run: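 Enzyme 0.8 nM, annealed DNA substrate 100 nM, […]; 25 mM Tris pH 7.5, 5% glycerol, 0.01% Triton X-100, 0.1 mg/ml BSA, 1 mM DTT, 1% DMSO. Quench with EDTA at timepoints to 60 min; PicoGreen read. kobs from time courses → Kinact/KI.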

Compound	Kinact/Kl
Cc1cc(C(F)(F)F)cc(N2C(=O)C[C@@H]3CN(Cc4ccc5c(c4)CN(C(=O)/C=C/CN(C)C)C5)c4c(F)cccc4N(C)C(=O)[C@H]32)n1 [Example 148, (3aR,11aS)-5-((2-((E)-4-(dimethylamino)but-2-enoyl)isoindolin-5-yl)methyl)-6-fluoro-10-methyl-1-(6-methyl-4-(trifluoromethyl)pyridin-2-yl)-1,3a,4,5,10,11a-hexahydro-2H-benzo[b]pyrrolo[2,3-f][1,4]diazocine-2,11(3H)-dione]	1.65e+06 M⁻¹ s⁻¹
Cc1cc(C(F)(F)F)cc(N2C(=O)C[C@@H]3CN(Cc4ccc5c(c4)CCN(C(=O)/C=C/CN(C)C)C5)c4c(F)cccc4N(C)C(=O)[C@H]32)n1 [Example 149, (3aR, 11aS)-5-((2-((E)-4-(dimethylamino)but-2-enoyl)-1,2,3,4-tetrahydroisoquinolin-6-yl)methyl)-6-fluoro-10-methyl-1-(6-methyl-4-(trifluoromethyl)pyridin-2-yl)-1,3a,4,5,10,11a-hexahydro-2H-benzo[b]pyrrolo[2,3-f][1,4]diazocine-2,11(3H)-dione]	1.08e+06 M⁻¹ s⁻¹
C=C(CN(C)C)C(=O)N1CC(OCCCN2C[C@H]3CC(=O)N(c4cc(C(F)(F)F)cc(C)n4)[C@@H]3C(=O)N(C)c3cccc(F)c32)C1 [Example 150, (3aR, 11aS)-5-(3-((1-(2-((dimethylamino)methyl)acryloyl)azetidin-3-yl)oxy)propyl)-6-fluoro-10-methyl-1-(6-methyl-4-(trifluoromethyl)pyridin-2-yl)-1,3a,4,5,10,11a-hexahydro-2H-benzo[b]pyrrolo[2,3-f][1,4]diazocine-2,11(3H)-dione]	3.35e+06 M⁻¹ s⁻¹
C=C(CN(C)C)C(=O)N1CC(c2ccc(CN3C[C@H]4CC(=O)N(c5cc(C(F)(F)F)cc(C)n5)[C@@H]4C(=O)N(C)c4cccc(F)c43)cc2)C1 [Example 151, (3aR, 11aS)-5-(4-(1-(2-((dimethylamino)methyl)acryloyl)azetidin-3-yl)benzyl)-6-fluoro-10-methyl-1-(6-methyl-4-(trifluoromethyl)pyridin-2-yl)-1,3a,4,5,10,11a-hexahydro-2H-benzo[b]pyrrolo[2,3-f][1,4]diazocine-2,11(3H)-dione]	2.04e+06 M⁻¹ s⁻¹
C=C(CN(C)C)C(=O)N1CC(c2cccc(CN3C[C@H]4CC(=O)N(c5cc(C(F)(F)F)cc(C)n5)[C@@H]4C(=O)N(C)c4cccc(F)c43)c2)C1 [Example 152, (3aR, 11aS)-5-(3-(1-(2-((dimethylamino)methyl)acryloyl)azetidin-3-yl)benzyl)-6-fluoro-10-methyl-1-(6-methyl-4-(trifluoromethyl)pyridin-2-yl)-1,3a,4,5,10,11a-hexahydro-2H-benzo[b]pyrrolo[2,3-f][1,4]diazocine-2,11(3H)-dione]	5.05e+06 M⁻¹ s⁻¹
C=C(CN(C)C)C(=O)N1Cc2ccc(CN3C[C@H]4CC(=O)N(c5cc(C(F)(F)F)cc(C)n5)[C@@H]4C(=O)N(C)c4cccc(F)c43)cc2C1 [Example 153, (3aR, 11aS)-5-((2-(2-((dimethylamino)methyl)acryloyl)isoindolin-5-yl)methyl)-6-fluoro-10-methyl-1-(6-methyl-4-(trifluoromethyl)pyridin-2-yl)-1,3a,4,5,10,11a-hexahydro-2H-benzo[b]pyrrolo[2,3-f][1,4]diazocine-2,11(3H)-dione]	1.51e+06 M⁻¹ s⁻¹
C=C(CN(C)C)C(=O)N1CCc2cc(CN3C[C@H]4CC(=O)N(c5cc(C(F)(F)F)cc(C)n5)[C@@H]4C(=O)N(C)c4cccc(F)c43)ccc2C1 [Example 154, (3aR, 11aS)-5-((2-(2-((dimethylamino)methyl)acryloyl)-1,2,3,4-tetrahydroisoquinolin-6-yl)methyl)-6-fluoro-10-methyl-1-(6-methyl-4-(trifluoromethyl)pyridin-2-yl)-1,3a,4,5,10,11a-hexahydro-2H-benzo[b]pyrrolo[2,3-f][1,4]diazocine-2,11(3H)-dione]	2.3e+06 M⁻¹ s⁻¹
C=C(CN(C)C)C(=O)N1CC(OCCCN2C[C@H]3CC(=O)N(c4cc(C(F)(F)F)cc(C)n4)[C@@H]3C(=O)N(C)c3cccc(Cl)c32)C1 [Example 156, (3aR,11aS)-6-chloro-5-(3-((1-(2-((dimethylamino)methyl)acryloyl)azetidin-3-yl)oxy)propyl)-10-methyl-1-(6-methyl-4-(trifluoromethyl)pyridin-2-yl)-1,3a,4,5,10,11a-hexahydro-2H-benzo[b]pyrrolo[2,3- ][1,4]diazocine-2,11(3H)-dione]	3.95e+06 M⁻¹ s⁻¹
C=C(CN(C)C)C(=O)N1CCn2cc(CN3C[C@H]4CC(=O)N(c5cc(C(F)(F)F)cc(C)n5)[C@@H]4C(=O)N(C)c4cccc(Cl)c43)nc2C1 [Example 159]	3.07e+06 M⁻¹ s⁻¹
C=C(CN(C)C)C(=O)N1CC(CCCCN2C[C@H]3CC(=O)N(c4cc(C(F)(F)F)cc(C)n4)[C@@H]3C(=O)N(C)c3cccc(Cl)c32)C1 [Example 161, (3aR, 11aS)-6-chloro-5-(4-(1-(2-((dimethylamino)methyl)acryloyl)azetidin-3-yl)butyl)-10-methyl-1-(6-methyl-4-(trifluoromethyl)pyridin-2-yl)-1,3a,4,5,10,11a-hexahydro-2H-benzo[b]pyrrolo[2,3-f][1,4]diazocine-2,11(3H)-dione]	5.08e+06 M⁻¹ s⁻¹
C=C(CN(C)C)C(=O)N1CC(COCCN2C[C@H]3CC(=O)N(c4cc(C(F)(F)F)cc(C)n4)[C@@H]3C(=O)N(C)c3cccc(Cl)c32)C1 [Example 162, (3aR,11aS)-6-chloro-5-(2-((1-(2-((dimethylamino)methyl)acryloyl)azetidin-3-yl)methoxy)ethyl)-10-methyl-1-(6-methyl-4-(trifluoromethyl)pyridin-2-yl)-1,3a,4,5,10,11a-hexahydro-2H-benzo[b]pyrrolo[2,3-f][1,4]diazocine-2,11(3H)-dione]	2.95e+06 M⁻¹ s⁻¹

The remaining lines, values ahead:

Kinact/Kl	Compound
610000 M⁻¹ s⁻¹	Cc1cc(C(F)(F)F)cc(N2C(=O)C[C@@H]3CN(Cc4cccc(C5CN(C(=O)/C=C/CN(C)C)C5)c4)c4c(F)cccc4N(C)C(=O)[C@H]32)n1 [Example 147, (3aR,11aS)-5-(3-(1-((E)-4-(dimethylamino)but-2-enoyl)azetidin-3-yl)benzyl)-6-fluoro-10-methyl-1-(6-methyl-4-(trifluoromethyl)pyridin-2-yl)-1,3a,4,5,10,11a-hexahydro-2H-benzo[b]pyrrolo[2,3-f][1,4]diazocine-2,11(3H)-dione]
2.51e+06 M⁻¹ s⁻¹	Cc1cc(C(F)(F)F)cc(N2C(=O)C[C@@H]3CN(CC4CCC(C5CN(C(=O)/C=C/CN(C)C)C5)CC4)c4c(Cl)cccc4N(C)C(=O)[C@H]32)n1 (stereo partly drawn) [Example 155, (3aR, 11aS)-6-chloro-5-((4-(1-((E)-4-(dimethylamino)but-2-enoyl)azetidin-3-yl)cyclohexyl)methyl)-10-methyl-1-(6-methyl-4-(trifluoromethyl)pyridin-2-yl)-1,3a,4,5,10,11a-hexahydro-2H-benzo[b]pyrrolo[2,3-f][1,4]diazocine-2,11(3H)-dione]
1.57e+06 M⁻¹ s⁻¹	C=C(CN(C)C)C(=O)N1CCC(OCCN2C[C@H]3CC(=O)N(c4cc(C(F)(F)F)cc(C)n4)[C@@H]3C(=O)N(C)c3cccc(Cl)c32)CC1 [Example 157, (3aR,11aS)-6-chloro-5-(2-((1-(2-((dimethylamino)methyl)acryloyl)piperidin-4-yl)oxy)ethyl)-10-methyl-1-(6-methyl-4-(trifluoromethyl)pyridin-2-yl)-1,3a,4,5,10,11a-hexahydro-2H-benzo[b]pyrrolo[2,3-f][1,4]diazocine-2,11(3H)-dione]
3.72e+06 M⁻¹ s⁻¹	C=C(CN(C)C)C(=O)N1CCC(CCCN2C[C@H]3CC(=O)N(c4cc(C(F)(F)F)cc(C)n4)[C@@H]3C(=O)N(C)c3cccc(Cl)c32)CC1 [Example 158, (3aR,11aS)-6-chloro-5-(3-(1-(2-((dimethylamino)methyl)acryloyl)piperidin-4-yl)propyl)-10-methyl-1-(6-methyl-4-(trifluoromethyl)pyridin-2-yl)-1,3a,4,5,10,11a-hexahydro-2H-benzo[b]pyrrolo[2,3-f][1,4]diazocine-2,11(3H)-dione]
2.3e+06 M⁻¹ s⁻¹	C=C(CN(C)C)C(=O)N1CC(C2CCC(CN3C[C@H]4CC(=O)N(c5cc(C(F)(F)F)cc(C)n5)[C@@H]4C(=O)N(C)c4cccc(Cl)c43)CC2)C1 (stereo partly drawn) [Example 160, (3aR,11aS)-6-chloro-5-((4-(1-(2-((dimethylamino)methyl)acryloyl)azetidin-3-yl)cyclohexyl)methyl)-10-methyl-1-(6-methyl-4-(trifluoromethyl)pyridin-2-yl)-1,3a,4,5,10,11a-hexahydro-2H-benzo[b]pyrrolo[2,3-f][1,4]diazocine-2,11(3H)-dione]
